Measurements reported in patent publication US9102648B1, “Bioavailable diacylhydrazine ligands for modulating the expression of exogenous genes via an ecdysone receptor complex” (Intrexon Corporation, priority 2003, dated 2015).
Like-named read-outs stand apart in the source and are kept apart here.

What was measured:
[1] = target: T1, Bombyx mori EcR (VP16 fusion, CVBE switch construct) (Bombyx mori, UniProt P49881); assay: Z3 Assay (HEK-293 cells with CVBE and 6XEcRE LacZ, β-galactosidase reporter); conditions: for Fold Induction, Z3 Assay, 3.3 uM: 3.3 uM ligand; for Fold Induction, Z3 Assay, 3.3 uM / Fold Induction, Z3 Assay, 33 uM: ligand treated / DMSO treated cells; for Fold Induction, Z3 Assay, 33 uM: 33 uM ligand; for Z3 assay Rel Max FI: maximum fold induction at any concentration relative to that of GS-E ligand; for fold induction at 33 µM: HEK293, read-out: Fold Induction, Z3 Assay, 33 uM; for fold induction at 3.3 µM: HEK293, read-out: Fold Induction, Z3 Assay, 3.3 uM
T1 sequence (P49881 86-606): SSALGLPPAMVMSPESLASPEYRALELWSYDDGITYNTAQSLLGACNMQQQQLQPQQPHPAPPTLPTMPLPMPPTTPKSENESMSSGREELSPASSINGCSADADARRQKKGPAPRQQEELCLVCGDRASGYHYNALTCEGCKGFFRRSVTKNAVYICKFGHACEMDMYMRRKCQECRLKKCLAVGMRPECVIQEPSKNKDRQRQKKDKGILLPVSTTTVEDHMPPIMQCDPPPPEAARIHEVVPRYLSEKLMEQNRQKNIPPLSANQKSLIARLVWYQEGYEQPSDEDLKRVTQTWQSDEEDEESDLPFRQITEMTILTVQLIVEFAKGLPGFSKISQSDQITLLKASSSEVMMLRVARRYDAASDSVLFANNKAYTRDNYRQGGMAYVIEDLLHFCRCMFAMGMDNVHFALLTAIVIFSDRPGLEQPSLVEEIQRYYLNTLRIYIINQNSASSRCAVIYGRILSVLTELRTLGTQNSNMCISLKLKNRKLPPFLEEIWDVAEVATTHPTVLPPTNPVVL
T1 sequence (P19793 1-462 partner): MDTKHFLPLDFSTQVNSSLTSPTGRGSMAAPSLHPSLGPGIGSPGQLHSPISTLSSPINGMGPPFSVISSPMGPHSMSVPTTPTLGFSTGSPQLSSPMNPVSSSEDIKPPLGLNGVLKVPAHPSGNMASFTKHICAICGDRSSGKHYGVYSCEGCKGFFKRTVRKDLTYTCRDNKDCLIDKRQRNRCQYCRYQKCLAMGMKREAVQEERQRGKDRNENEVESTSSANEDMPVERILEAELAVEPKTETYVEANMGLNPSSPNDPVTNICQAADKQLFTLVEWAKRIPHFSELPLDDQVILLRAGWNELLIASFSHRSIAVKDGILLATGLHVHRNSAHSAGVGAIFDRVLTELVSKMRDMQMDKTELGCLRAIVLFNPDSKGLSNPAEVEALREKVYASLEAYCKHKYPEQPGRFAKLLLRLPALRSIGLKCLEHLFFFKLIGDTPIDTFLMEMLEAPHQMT

[2] = target: GAL4 DBD-CfEcR(DEF)/VP16AD-MmRXRE (Choristoneura fumiferana, UniProt O77240); assay: 13B3 Assay (CHO stable cell line, luciferase reporter); conditions: for Fold Induction, 13B3 Assay, 3.3 uM: 3.3 uM ligand; for Fold Induction, 13B3 Assay, 3.3 uM / Fold Induction, 13B3 Assay, 33 uM: RLU ligand treated / RLU DMSO treated cells; for Fold Induction, 13B3 Assay, 33 uM: 33 uM ligand; for 13B3 assay Rel Max FI: maximum fold induction at any concentration relative to that of GS-E ligand, CHO 13B3 cells; for fold induction at 33 µM: read-out: Fold Induction, 13B3 Assay, 33 uM; for fold induction at 3.3 µM: read-out: Fold Induction, 13B3 Assay, 3.3 uM
Outline: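 Ligands dosed at 8 levels from 33 to 0.01 μM (DMSO stocks diluted 300-fold) onto the 13B3 CHO line carrying GAL4-DBD/CfEcR-DEF, VP16/MmRXR-DE and a GAL4-responsive luciferase gene.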

[3] = read-out: Z3 assay EC50, HEK-293 Z3 cells, β-galactosidase reporter, average of two wells
[4] = read-out: 13B3 EC50, CHO 13B3 stable cell line, luciferase reporter, 48 h, average of two wells

SMILES	Fold Induction, Z3 Assay, 3.3 uM ([1]; average of two wells)	Fold Induction, Z3 Assay, 33 uM ([1]; average of two wells)	Z3 assay Rel Max FI ([1]; HEK-293 Z3 cells)	EC50 [1, 3]	Fold Induction, 13B3 Assay, 3.3 uM ([2]; average of two wells)	Fold Induction, 13B3 Assay, 33 uM ([2]; average of two wells)	13B3 assay Rel Max FI [2]	EC50 [2, 4]	fold induction at 33 µM [1]	fold induction at 33 µM [2]	EC50 [1]	fold induction at 3.3 µM [1]	EC50 [2]	fold induction at 3.3 µM [2]
Cc1cc(C)cc(C(=O)N(NC(=O)c2cccc([N+](=O)[O-])c2C)C(C)(C)C)c1 [RG-100915]	532	1292	0.912	1000 nM	133	525	0.552	4450 nM	–	–	–	–	–	–
CCc1ccc(C(=O)NN(C(=O)c2cc(C)cc(C)c2)C(C)(C)C)cc1CC [RG-101889]	1085	245	–	3300 nM	–	378	–	–	–	–	–	–	–	–
CCc1c(OC)cccc1C(=O)NN(C(=O)c1cc(OC)c(OC(C)=O)c(OC)c1)C(C)(C)C [RG-115191]	386	–	0.934	2400 nM	3	–	1.513	> 50000 nM	–	–	–	–	–	–
CCc1c(OC)cccc1C(=O)NN(C(=O)c1cc(OC)ccc1OC)C(C)(C)C [RG-100779]	947	304	0.707	178 nM	–	2979	–	–	–	–	–	–	–	–
CCc1c(OC)cccc1C(=O)NN(C(=O)c1nc(SC)cnc1Cl)C(C)(C)C [RG-115716]	–	66	–	–	3	–	–	–	–	–	–	–	–	–
CCc1ccc(C(=O)NN(C(=O)c2cc(C)ccc2[N+](=O)[O-])C(C)(C)C)cc1 [RG-101398]	1138	403	0.712	282 nM	–	159	–	–	–	–	–	–	–	–
CCc1c(OC)cccc1C(=O)NN(C(=O)c1ccc2nc[nH]c2c1)C(C)(C)C [RG-115719, 3H-benzoimidazole-5-carboxylic acid N-tert-butyl-N′-(2-ethyl-3-methoxy-benzoyl)-hydrazide]	–	–	–	–	–	–	–	–	271	1	–	–	–	–
COc1cccc(C(=O)NN(C(=O)c2cc(Cl)nc(Cl)c2)C(C)(C)C)c1C [RG-100394]	1339	11	–	1220 nM	–	178	–	–	–	–	–	–	–	–
CCc1c(OC)cccc1C(=O)NN(C(=O)c1cc(OC)c(O)c(OC)c1)C(C)(C)C [RG-115116]	276	–	0.960	3310 nM	2	–	1.172	> 50000 nM	–	–	–	–	–	–
CCc1c(OC)cccc1C(=O)NN(C(=O)c1cccc(Br)c1)C(C)(C)C#N [RG-115648]	–	–	0.182	21400 nM	9	–	–	–	–	–	–	–	–	–
Cc1cc(C(=O)N(NC(=O)c2cccc(Cl)c2C)C(C)(C)C)ccc1Br [RG-101664]	6	1	–	21100 nM	1	–	0.002	> 50000 nM	–	–	–	–	–	–
CCc1c(OC)cccc1C(=O)NN(C(=O)c1cc(C)cc(C)c1)C(C)(C)COC(C)=O [RG-115310]	199	960	0.781	2630 nM	2	3044	0.676	> 50000 nM	–	–	–	–	–	–
CCCCC(CC)N(NC(=O)c1cccc(C)c1C)C(=O)c1ccccc1 (racemic) [RG-103361]	171	244	0.938	526 nM	504	2262	0.758	28000 nM	–	–	–	–	–	–
CCc1c(C(=O)NN(C(=O)c2ccccc2OC)C(C)(C)C)ccc2c1OCO2 [RG-100698]	1089	591	1.025	1000 nM	–	434	–	–	–	–	–	–	–	–
COc1cccc(C(=O)NN(C(=O)c2cc(C)cc(C)c2)C(C)(C)C)c1CCl [RG-115490, 3,5-dimethyl-benzoic acid N-tert-butyl-N′-(2-chloromethyl-3-methoxy-benzoyl)-hydrazide]	–	–	0.44	–	–	–	1.01	–	814	844	6350 nM	123	> 50000 nM	2
Cc1cc(C)cc(C(=O)N(NC(=O)c2ccc3c(c2Cl)COCO3)C(C)(C)C)c1 [RG-115532]	530	–	0.933	129 nM	908	738	0.835	518 nM	–	–	–	–	–	–
COc1cc(OC)cc(C(=O)N(NC(=O)c2cccc(C)c2C)C(C)(C)C)c1 [RG-100764]	915	369	0.900	2340 nM	–	3814	–	–	–	–	–	–	–	–
Cc1cc(C)cc(C(=O)N(NC(=O)c2ccc3ncsc3c2)C(C)(C)C)c1 [RG-101312]	600	292	0.955	5620 nM	–	1874	–	–	–	–	–	–	–	–
Cc1c(Cl)cccc1C(=O)NN(C(=O)c1cccc(Cl)c1)C(C)(C)C [RG-101202]	195	1	–	1740 nM	5	7	0.007	369 nM	–	–	–	–	–	–
CCc1c(OC)cccc1C(=O)NN(C(=O)c1cnccn1)C(C)(C)C [RG-115550, pyrazine-2-carboxylic acid N-tert-butyl-N′-(2-ethyl-3-methoxy-benzoyl)-hydrazide]	–	–	–	–	–	–	–	–	21	–	–	–	–	1
C=CCOCc1c(OC)cccc1C(=O)NN(C(=O)c1cc(C)cc(C)c1)C(C)(C)C [RG-115003, 3,5-dimethyl-benzoic acid N′-(2-allyloxymethyl-3-methoxy-benzoyl)-N-tert-butyl-hydrazide]	–	–	–	–	–	–	–	–	1280	301	–	–	–	–
COc1cccc(C(=O)NN(C(=O)c2cc(C)cc(C)c2)C(C)(C)C)c1COC(C)=O [RG-115225, 3,5-dimethyl-benzoic acid N-tert-butyl-N′-(2-acetoxymethyl-3-methoxy-benzoyl)-hydrazide]	–	–	0.32	–	–	–	0.08	–	571	8	> 50000 nM	3	580 nM	3
CCc1ccc(C(=O)NN(C(=O)c2cc(OC)c(C)c(OC)c2)C(C)(C)C)c(F)c1 [RG-115077]	294	–	0.911	389 nM	932	199	1.509	847 nM	–	–	–	–	–	–
Cc1cc(C)cc(C(=O)N(NC(=O)c2ccc3c(c2)OC(C)CO3)C(C)(C)C)c1 (racemic) [RG-101509]	1303	328	0.882	1180 nM	–	1144	–	–	–	–	–	–	–	–
CCc1c(OC)cccc1C(=O)NN(C(=O)c1cc(C)nc(Cl)c1)C(C)(C)C [RG-100667]	1480	238	0.890	347 nM	–	1191	–	–	–	–	–	–	–	–
